What was measured:
Format in all cases: physicochemical
[1] = NMR self-diffusion coefficients and specific diffusivity ratio; details: for Specific diffusivity ratio measured at 4%: diffusion coefficient of the viscosity reducing agent/diffusion coefficient of the surfactant, 4% additive; for Diffusion Coefficient (m^2/s) surfactant at 4% additive: surfactant self-diffusion
Description: Now referring to Table 5, the specified viscosity reducing agents were added to the formula at a level of 4% in absence of other viscosity reducing agents. Diffusion coefficients were determined using a vendor-supplied pulse sequence (“ledbpgq2s”, stimulated echo with bipolar gradients and convection compensation) using a Bruker Avance 700 MHz NMR spectrometer equipped with a Diff-30 high gradient diffusion probe. Gradient pulse durations ranged between 1700-2700 us, with diffusion periods ranging from 50-100 ms. 32 linearly-spaced gradient values were used ranging from 2%-95% of 40 A current, with resulting gradient strengths given by 30 Gauss/cm/A. Data were processed using software written in-house. It is often necessary to fit more than one diffusion coefficient to individual signals. Average diffusion coefficients are reported in these cases. Averages were calculated by averaging the reciprocals of the diffusion coefficients and then taking the reciprocal of that average.
The specific diffusivity ratio is calculated as the ratio of the diffusion coefficient of the viscosity reducing agent/diffusion coefficient of the surfactant.
Two mechanisms of viscosity reduction are hypothesized based on self-diffusion coefficients. This leads to a simple diagnostic measurement to classify perfumes by their mechanism of viscosity reduction. That diagnostic is the ratio of the perfume self-diffusion coefficient to the surfactant self-diffusion coefficient (specific diffusivity ratio). In mechanism 1, the surfactant diffusion coefficient is not reduced, and may be increased, while the perfume diffusion coefficient is faster still. In mechanism 2, the surfactant and perfume diffusion coefficient are reduced to relatively small, nearly equal values. For mechanism 1, the viscosity reducing agent diffuses faster than the surfactant (specific diffusivity ratio>1), whereas for mechanism 2, the viscosity reducing agent diffuses slower than the surfactant (specific diffusivity ratio<1).

[2] = Kinematic viscosity of surfactant base formulation with added agent (calibrated Cannon viscometers); details: for Kinematic viscosity at 40 C., 2% oil: 2% agent in base formulation; for Kinematic viscosity at 40 C., 4% oil: 4% agent in base formulation; for Kinematic viscosity at 40 C., 6% oil: 6% agent in base formulation; for Lowest viscosity achieved: kinematic viscosity at 40° C., lowest over 2%, 4%, 6%, 8% agent in base formulation (24% sodium undecyl sulfate, 6% lauramidopropyl betaine, 1.6% perfume); for Kinematic viscosity at 40 C., 8% oil: 8% agent in base formulation
Excerpt: Referring to Tables 1 and 2, the base formulations were made by mixing 1.6% perfume, 24% sodium undecyl sulfate (CAS#1072-24-8) active, 6% lauramidopropyl betaine (CAS#4292-10-8) active and 60.4% deionized water which leaves 8% unfilled for the addition of a viscosity reducing agent (the balance being filled in by distilled water). For all compositions, the surfactant, water and additives including viscosity reducing agents were expected to be in a single phase.
The agents from Tables 1 and 2 were added to the base formulation at a percentage of 2%, 4%, 6%, and 8% into the above surfactant solution. The subsequent formulations were vortexed and put into oven at 60° C. overnight to form homogeneous solution. The viscosities of the formulations were measured with calibrated viscometers (Size 200/350/450) from Cannon Instrument Company (2139 High Tech Road, State College, Pa., USA, 16803).
After the equilibration, the formulations were drawn to reach the starting mark with a rubber suction bulb and the flow time between the starting mark and end mark was recorded for calculation. Each formulation was measured three times to calculate average and standard deviation. Between samples, viscometer was cleaned with water and acetone to rinse off residual.
Viscosity values were calculated based on the equation:
Viscosity (mm^2/s (cSt))=Time (s)*Constant (mm^2/s^2·(cSt/s))
The time in the above equation is the flow time recorded in the experiment and the constant numbers for each calibrated viscometer were obtained from the manuals.

[3] = Shear viscosity of base formulation with additives (TA Instruments AR-G2 rheometer); details: 5% single additive, 25 C, shear rate 1 s^-1
Excerpt: Now referring to Table 3, the base formulations were made by mixing 1.5 or 3.0% of perfume R, 24% sodium undecyl sulfate (CAS#1072-24-8) active, 6% Lauramidopropyl Betaine (CAS#4292-10-8) active, and 60.4% deionized water which leaves 8% unfilled for oil addition and level studies (the balance being filled in by distilled water).
The complete formulations were made by adding the respective percentage of the agents from Table 3 into the base formulation, and filling the rest with deionized water to make 100% finished sample. The formulations were vortexed and put into oven at 60° C. overnight to form a homogeneous solution. For all formulations, the surfactant, water and additives including viscosity reducing agents are expected to be in a single phase.
The shear viscosity at 25 C for each formulations was measured at a shear rate of 1 s^−1 using a TA Instruments AR-G2 rheometer with a concentric cylinder attachment. Shear viscosities are reported in cP.

[4] = SAXS correlation length of the micelles; details: for Change in correlation length compared to control: control 51 A
Excerpt: Now referring to Table 4, SAXS (Small angle x-ray scattering) was used to characterize the structure of the surfactant aggregates. For these set of samples, the broad peak represents the correlation length (CL) of the micelles and was used to differentiate between the different formulations.
SAXS data was collected with a Bruker NanoSTAR (Bruker AXS Inc., Madison, Wis., U.S.A.) using the micro-focus, Cu x-ray tube, operating at 45 kV, 0.650 mA. The sample to detector distance was 112.050 cm and the detector was Vantec2K 2-dimensional area detector. Samples were placed in 2 mm quartz capillaries, sealed with expoxy resin to prevent evaporation. The sealant is permitted to cure for 2 hours at RT (room temperature) prior to loading into the SAXS sample chamber for data acquisition under vacuum with a data collection time of 1200 s. The data acquisition angular range is 0.3° to 3.0° […], to observe the presence and location of any intensity bands in the x-ray scattering pattern.
Each raw 2-D SAXS data is integrated azimuthally and plotted versus the scattering vector (q), which is expressed as a […] in units of angstroms (1/Å). • The values for q are calculated by the SAXS instrument according to the following equation: […]
Where: 2θ is the scattering angle; and λ is the wavelength used. For each formulation analyzed, the location of each intensity peak on the plot of (Intensity) I vs q is identified and recorded.

Compound	Specific diffusivity ratio measured at 4% [1]	Diffusion Coefficient (m^2/s) surfactant at 4% additive [1] [m^2/s]	Kinematic viscosity at 40 C., 2% oil [2] [cSt]	Kinematic viscosity at 40 C., 4% oil [2] [cSt]	Kinematic viscosity at 40 C., 6% oil [2] [cSt]	Lowest viscosity achieved [2] [cSt]	Shear viscosity [cP] for mixture ([3]; 3.0% Royal Hue) [cP]	Kinematic viscosity at 40 C., 8% oil [2] [cSt]	Correlation length peak [A] ([4]; 2% oil)	Change in correlation length compared to control ([4]; 2% oil) [%]	Correlation length peak [A] ([4]; 4% oil)	Change in correlation length compared to control ([4]; 4% oil) [%]	Shear viscosity [cP] for mixture ([3]; 1.5% Royal Hue) [cP]
CC12CCC(CC1)C(C)(C)O2 [Eucalyptol]	1.5710	1.2262E−11	527.3	292.9	203.1	203	376	–	–	–	–	–	–
CC1=CCC2CC1C2(C)C (stereo not drawn) [alpha-Pinene]	–	–	–	–	–	–	207	–	–	–	–	–	–
C=C(C)[C@H]1CC=C(C)CC1 [Limonene]	0.7428	2.4338E−12	366.5	166.8	97.5	86	160	86.4	57	11.8	62	21.6	40
CCOC(=O)C1OC1(C)c1ccccc1 (stereo not drawn) [Ethyl Methyl Phenyl Glycidate]	–	–	–	–	–	–	163	–	–	–	–	–	–
CC(=O)CCc1ccc(O)cc1 [Raspberry Ketone]	5.1364	9.5404E−12	151.9	107.4	54.0	33	110	33.0	50	−2.0	49	−3.9	160
CC(CC=O)CCCC(C)(C)O (stereo not drawn) [Hydroxycitronellal]	–	–	310.8	145.4	65.9	34	161	34.1	–	–	–	–	–
CCCCCCCCCCCCCCCC [Hexadecane]	0.9998	4.1943E−12	21.1	18.1	–	18	–	–	59	15.7	66	29.4	–
CC(=O)c1ccccc1 [Acetophenone]	–	–	–	–	–	–	119	–	–	–	–	–	–
